Experimental data: US12331051B2 (priority 2021, dated 2025)

Columns and labels:
Experiment in all cases: Radioligand binding, cell membrane homogenates
[1] = molecular target: T1, Beta 2 adrenergic receptor (Homo sapiens, UniProt P07550)
T1 construct: expressed in transfected cells; host or cells: HEK-293
Experimental: (§1) Neuro-receptor binding and functional effects of the “E559 polymorph” was examined by analyzing binding affinity [Ki (nM)], functional agonist activity [EC50 (nM)], and functional antagonist activity [IC50 (nM)] against a panel of key receptors in neurophysiological disorders. Binding and functional assays were performed at “E559 polymorph” concentrations of 0.0003, 0.003, 0.01, 0.03, 0.1, 0.3, 1, and 10 μM. In binding assays, cell membrane homogenates, expressing each receptor target, were incubated with the corresponding radio-ligand in absence or presence of several concentration of the “E559 polymorph” compound. The measurement of binding affinity of the “E559 polymorph” is represented in TABLE XIII by Ki (nM) which was calculated as percent inhibition of the binding of a radioactively labeled reference ligand at each receptor. In functional assays the HEK-293 cells expressing each receptor target were suspended in buffer and distribute in microplates and incubated for 30 minutes at room temperature or 37° C. in the presence of buffer alone (basal control), the reference agonist or antagonist, or the “E559 polymorph. Following incubation, the cells were lysed and the appropriate fluorescent probe (Ca2+ flux, cAMP, or IP1) were added for 60 minutes to measure the fluorescence transfer at the appropriate wavelength using a microplate reader. The cellular agonist effect (EC50) was calculated as a percent of control response to a known reference agonist and the cellular antagonist effect (IC50) was calculated as a percent inhibition of control reference agonist response for each receptor.

[2] = molecular target: T2, Alpha 2C adrenergic receptor (Homo sapiens, UniProt P18825)
T2 construct: expressed in transfected cells; host or cells: HEK-293
T2 sequence (P18825 1-462): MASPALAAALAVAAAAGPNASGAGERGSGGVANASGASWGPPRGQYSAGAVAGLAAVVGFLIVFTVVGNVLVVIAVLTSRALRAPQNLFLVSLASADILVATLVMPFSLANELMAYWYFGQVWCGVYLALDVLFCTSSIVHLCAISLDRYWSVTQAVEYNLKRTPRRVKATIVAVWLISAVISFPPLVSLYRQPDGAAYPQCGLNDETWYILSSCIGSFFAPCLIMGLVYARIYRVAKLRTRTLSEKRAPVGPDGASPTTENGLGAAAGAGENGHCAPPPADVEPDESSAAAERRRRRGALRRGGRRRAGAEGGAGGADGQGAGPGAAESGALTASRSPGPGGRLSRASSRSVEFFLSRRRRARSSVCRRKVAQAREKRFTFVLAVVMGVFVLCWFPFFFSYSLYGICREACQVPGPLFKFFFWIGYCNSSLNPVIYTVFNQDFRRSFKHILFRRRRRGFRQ
Experimental: as §1

[3] = molecular target: T3, Alpha 2B adrenergic receptor (Homo sapiens, UniProt P18089)
T3 construct: expressed in transfected cells; host or cells: HEK-293
T3 sequence (P18089 1-450): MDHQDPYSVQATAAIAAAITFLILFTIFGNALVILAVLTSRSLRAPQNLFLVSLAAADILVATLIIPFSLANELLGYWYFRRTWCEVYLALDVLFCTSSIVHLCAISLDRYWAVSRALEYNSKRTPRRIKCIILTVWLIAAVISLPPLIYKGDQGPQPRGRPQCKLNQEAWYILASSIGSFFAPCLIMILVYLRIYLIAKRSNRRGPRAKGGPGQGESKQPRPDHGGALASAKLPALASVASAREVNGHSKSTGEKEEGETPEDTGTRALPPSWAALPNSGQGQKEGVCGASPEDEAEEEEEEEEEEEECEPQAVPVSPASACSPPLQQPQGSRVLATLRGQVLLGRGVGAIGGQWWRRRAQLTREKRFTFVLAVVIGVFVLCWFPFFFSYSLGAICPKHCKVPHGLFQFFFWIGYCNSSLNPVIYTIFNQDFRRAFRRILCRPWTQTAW
Experimental: as §1

[4] = molecular target: T4, Serotonin 2B receptor (5-HT2BR) (Homo sapiens, UniProt P41595)
T4 construct: expressed in transfected cells; host or cells: HEK-293
T4 sequence (P41595 whole entry): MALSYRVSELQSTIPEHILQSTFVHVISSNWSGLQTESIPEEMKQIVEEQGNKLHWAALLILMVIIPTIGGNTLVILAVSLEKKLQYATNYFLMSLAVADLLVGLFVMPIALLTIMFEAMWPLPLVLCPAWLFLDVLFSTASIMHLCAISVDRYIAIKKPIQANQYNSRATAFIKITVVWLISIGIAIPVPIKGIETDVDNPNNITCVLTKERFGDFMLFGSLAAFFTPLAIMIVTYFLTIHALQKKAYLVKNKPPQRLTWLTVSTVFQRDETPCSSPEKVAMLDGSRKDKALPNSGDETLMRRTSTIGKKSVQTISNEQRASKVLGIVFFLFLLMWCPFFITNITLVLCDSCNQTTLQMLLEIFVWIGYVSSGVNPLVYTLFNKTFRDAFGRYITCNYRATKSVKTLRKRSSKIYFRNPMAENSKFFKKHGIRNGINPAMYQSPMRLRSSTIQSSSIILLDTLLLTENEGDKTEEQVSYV
Experimental: as §1

[5] = molecular target: T5, Alpha 1A adrenergic receptor (Homo sapiens, UniProt P35348)
T5 construct: expressed in transfected cells; host or cells: HEK-293
T5 sequence (P35348 1-466): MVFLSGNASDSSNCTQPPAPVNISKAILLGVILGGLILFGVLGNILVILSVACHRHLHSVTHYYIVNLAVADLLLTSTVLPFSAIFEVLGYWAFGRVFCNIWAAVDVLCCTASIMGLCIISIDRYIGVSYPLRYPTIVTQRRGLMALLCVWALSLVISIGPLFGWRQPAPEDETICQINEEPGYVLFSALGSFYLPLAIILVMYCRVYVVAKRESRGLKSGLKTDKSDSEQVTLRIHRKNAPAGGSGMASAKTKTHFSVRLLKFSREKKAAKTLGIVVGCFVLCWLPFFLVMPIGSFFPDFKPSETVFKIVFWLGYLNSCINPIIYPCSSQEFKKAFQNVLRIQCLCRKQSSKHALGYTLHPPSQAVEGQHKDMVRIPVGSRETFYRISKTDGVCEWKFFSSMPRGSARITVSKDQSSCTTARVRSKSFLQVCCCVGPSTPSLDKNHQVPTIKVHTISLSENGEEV
Experimental: as §1

[6] = molecular target: T6, Serotonin 1A receptor (5-HT1AR) (Homo sapiens, UniProt P08908)
T6 construct: expressed in transfected cells; host or cells: HEK-293
T6 sequence (P08908 1-422): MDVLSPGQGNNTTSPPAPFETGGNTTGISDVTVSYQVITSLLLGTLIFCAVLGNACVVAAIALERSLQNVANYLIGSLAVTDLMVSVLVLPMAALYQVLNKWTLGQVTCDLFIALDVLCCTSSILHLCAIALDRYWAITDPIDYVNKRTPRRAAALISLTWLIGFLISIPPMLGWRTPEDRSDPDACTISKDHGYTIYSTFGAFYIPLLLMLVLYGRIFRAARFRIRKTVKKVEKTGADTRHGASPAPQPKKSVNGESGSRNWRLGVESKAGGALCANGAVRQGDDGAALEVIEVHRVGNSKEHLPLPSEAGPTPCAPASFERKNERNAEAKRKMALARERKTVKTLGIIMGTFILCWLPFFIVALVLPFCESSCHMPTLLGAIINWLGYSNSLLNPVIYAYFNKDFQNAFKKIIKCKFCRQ
Experimental: as §1

[7] = molecular target: T7, 5-HT2A receptor (5-HT2AR) (Homo sapiens, UniProt P28223)
T7 construct: expressed in transfected cells; host or cells: HEK-293
T7 sequence (P28223 whole entry): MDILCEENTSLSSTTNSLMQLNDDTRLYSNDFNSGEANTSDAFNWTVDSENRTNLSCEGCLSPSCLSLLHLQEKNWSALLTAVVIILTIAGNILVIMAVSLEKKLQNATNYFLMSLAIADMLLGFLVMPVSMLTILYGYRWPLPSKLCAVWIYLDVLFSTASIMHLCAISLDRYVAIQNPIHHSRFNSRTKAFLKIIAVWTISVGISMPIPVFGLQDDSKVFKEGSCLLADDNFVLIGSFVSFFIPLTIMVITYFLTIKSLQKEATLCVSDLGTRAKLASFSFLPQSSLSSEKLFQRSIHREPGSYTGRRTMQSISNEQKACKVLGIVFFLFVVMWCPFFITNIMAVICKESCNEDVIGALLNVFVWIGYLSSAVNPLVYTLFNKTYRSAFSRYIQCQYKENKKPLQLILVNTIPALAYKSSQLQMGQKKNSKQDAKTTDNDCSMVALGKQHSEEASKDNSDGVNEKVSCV
Experimental: as §1

[8] = molecular target: T8, Beta 1 adrenergic receptor (Homo sapiens, UniProt P08588)
T8 construct: expressed in transfected cells; host or cells: HEK-293
T8 sequence (P08588 whole entry): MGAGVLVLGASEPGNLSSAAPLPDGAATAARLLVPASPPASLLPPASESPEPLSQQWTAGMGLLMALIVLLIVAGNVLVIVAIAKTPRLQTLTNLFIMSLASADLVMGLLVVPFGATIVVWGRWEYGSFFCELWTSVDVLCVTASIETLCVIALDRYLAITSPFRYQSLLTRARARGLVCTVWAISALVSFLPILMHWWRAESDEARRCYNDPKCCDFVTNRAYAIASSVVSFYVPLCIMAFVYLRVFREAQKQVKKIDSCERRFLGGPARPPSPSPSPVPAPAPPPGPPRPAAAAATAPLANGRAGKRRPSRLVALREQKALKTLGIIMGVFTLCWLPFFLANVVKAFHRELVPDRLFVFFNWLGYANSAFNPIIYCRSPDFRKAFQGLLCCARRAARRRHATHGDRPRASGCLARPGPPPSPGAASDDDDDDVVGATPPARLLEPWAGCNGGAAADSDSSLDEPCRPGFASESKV
Experimental: as §1

T1 sequence (P07550 whole entry): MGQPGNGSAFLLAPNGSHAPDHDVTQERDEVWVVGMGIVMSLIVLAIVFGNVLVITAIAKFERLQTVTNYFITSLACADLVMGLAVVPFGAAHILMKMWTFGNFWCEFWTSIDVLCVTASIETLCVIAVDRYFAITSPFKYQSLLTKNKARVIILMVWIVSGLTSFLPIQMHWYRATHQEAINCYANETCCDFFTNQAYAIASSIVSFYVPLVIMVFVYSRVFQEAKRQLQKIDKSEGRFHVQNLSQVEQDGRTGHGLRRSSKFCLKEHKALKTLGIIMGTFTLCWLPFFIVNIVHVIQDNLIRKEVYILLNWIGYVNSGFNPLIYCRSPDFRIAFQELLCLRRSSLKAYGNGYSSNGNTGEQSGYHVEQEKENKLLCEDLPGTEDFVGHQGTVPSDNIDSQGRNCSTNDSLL

## CCN(CC)C(=O)[C@@H]1C=C2c3cccc4[nH]c(Br)c(c34)C[C@H]2N(C)C1 [E559, (5R, 8R)-2-Bromo-9,10-didehydro-N,N-diethyl-6-methylergoline-8-carboxamide hemi-D-tartrate]
[1]
  Ki: 88 nM
[2]
  Ki: 27 nM
[3]
  Ki: 27 nM
[4]
  Ki: 7 nM
[5]
  Ki: 59 nM
[6]
  Ki: 9.3 nM
[7]
  Ki: 2.2 nM
[8]
  Ki: 109 nM
